≈ marks a conversion by molar mass, not a printed value. Entries after “also recorded” stand apart in the source; their conditions may differ. One block for each compound: values may come before it.
Assays:
[1] = target: T1, human adenosine A2a receptor (Homo sapiens, UniProt P29274); assay: Calcium flux assay of the human adenosine A2a receptor (FLIPR, CHO cells stably expressing A2a, agonist NECA); format: cell-based; conditions: conclusion on Table 3
T1 construct: host or cells: CHO cells
Procedure: Calcium Flux Assay of the Human Adenosine A2a Receptor
The cell line stably expressing A2a was constructed by Shanghai WuXi AppTec, and the host cells were CHO cells.
Fluo-4 Direct kit (Invitrogen, Cat. No. F10471). The fluorescence detection reagent in the kit (which can specifically bind to calcium ions and cause an increase in the fluorescence signal) was incubated with the cells for an appropriate period of time, and the compounds were added to stimulate the cells to cause changes in the intracellular calcium flux, thereby causing changes in the fluorescence signal, which can reflect the strength of the agonistic or inhibitory activity of the compounds. […]
FLIPR instrument software was run. According to the set program, 10 μl of the compound dilution buffer was added to the cell plate, and the fluorescence signal was read. Then 10 μl of a predetermined concentration of the agonist as a reference compound was added to the cell plate, and the fluorescence signal was read. After the reading, data was exported through the “Max-Min” and “Read 90 to Maximum allowed” methods in the software. EC80 of the A2A cell line was calculated, and the agonist with a concentration of 6×EC80 was prepared. […]
FLIPR instrument software was run. […] Again, 10 μl of the agonist as a reference compound with a concentration of 6×EC80 was added to the cell plate, and the fluorescence signal was read. […]

[2] = Pharmacokinetics in female Balb/c mice after intravenous injection and oral administration; format: in vivo
Procedure: Object of the assay: to test the pharmacokinetics of the compound in female Balb/c mice in vivo
Balb/c mice (female, 15 to 30 g, 7 to 9 weeks old, from Shanghai Lingchang Biotechnology Company)
The pharmacokinetic profile of the compound after intravenous injection and oral administration in the rodents was tested by the standard protocol. In the assay, the candidate compound was prepared into a clear solution to be administered to the mice through a single intravenous injection and prepared into a homogeneous suspension to be administered to the mice through a single oral administration. The vehicle for the intravenous injection was 5% DMSO/95% 10% Cremophor EL, and the vehicle for the oral administration was 1% Tween 80, 9% PEG400, and 90% water. The whole blood sample was collected within 24 hours, and centrifuged at 3000 g at 4° C. for 15 minutes. The supernatant was separated to give the plasma sample, and 20 times volume of acetonitrile solution containing an internal standard was added to precipitate the proteins. […] The supernatant was taken out, and injected as a sample to quantitatively analyze the plasma drug concentration by LC-MS/MS analysis method. The pharmacokinetic parameters were calculated, such as peak concentration, peak time, clearance rate, half-life, area under the drug-time curve, bioavailability, etc.

[3] = Determination of solubility of crystal form A of compound 1 in single or mixed solvents; format: physicochemical; conditions: for solubility: organic solvent or mixture, thermodynamic from solid
Procedure: Assay Example 1: Determination of Solubility of Crystal Form A of Compound 1
Multiple portions of about 2.0 mg of crystal form A of compound 1 were weighed in parallel and placed in glass vials. Various single solvents or mixed solvents listed in Table 2 were gradually added in small amount, and shaken constantly, while the dissolution of the compound was observed. The solubility of the compound was calculated based on the weight of the weighed compound and the volume of the correspondingly added solvent.

CT26 cells = assay: Pharmacodynamics in vivo in CT-26 model (subcutaneous CT26 tumor in BALB/c nude mice); conditions: anti-PD-1 5 mg/Kg QW; for Volume of tumor: crystal form A 50 mg/Kg BID oral
From the text: Assay Example 4: Study of Pharmacodynamics of Crystal Form a of Compound 1 In Vivo in CT-26 Model
BALB/c nude mice (female, 7 weeks old, and weighing about 16 to 20 g) were kept in a breeding environment of SPF-class animal room, and in single ventilated cages (5 mice per cage). Bedding and water in all cages were disinfected before use. All the animals had free access to the standard certified commercial laboratory diet. A total of 80 mice were purchased from Shanghai Slack Laboratory Animal Co., Ltd. Anti-PD-1 antibody was purchased from BioXcell with the clone of RMP-14 and the product number of BP0146. 0.1 mL of 3×10^5 CT26 cells were subcutaneously inoculated in the right back of each mouse, and the mice were randomly divided into groups for administration.
CT26 cells were subcutaneously inoculated in the right back of each BALB/c nude mouse to test pharmacodynamics in vivo. In the assay, the test compound was administered orally every day for 22 consecutive days, and the anti-PD-1 antibody was administered once per week for three consecutive weeks. The volume of the tumor was measured twice a week with a two-dimensional caliper, and the volume was measured in cubic millimeter, which was calculated by the following formula: V=0.5 a×b^2, wherein a and b were the long and short diameters of the tumor, respectively. The anti-tumor efficacy was determined by dividing the average volume increase of the tumors of animals treated with the compound by the average volume increase of the tumors of the untreated animals. (BID means twice a day)

T1 sequence (P29274 whole entry): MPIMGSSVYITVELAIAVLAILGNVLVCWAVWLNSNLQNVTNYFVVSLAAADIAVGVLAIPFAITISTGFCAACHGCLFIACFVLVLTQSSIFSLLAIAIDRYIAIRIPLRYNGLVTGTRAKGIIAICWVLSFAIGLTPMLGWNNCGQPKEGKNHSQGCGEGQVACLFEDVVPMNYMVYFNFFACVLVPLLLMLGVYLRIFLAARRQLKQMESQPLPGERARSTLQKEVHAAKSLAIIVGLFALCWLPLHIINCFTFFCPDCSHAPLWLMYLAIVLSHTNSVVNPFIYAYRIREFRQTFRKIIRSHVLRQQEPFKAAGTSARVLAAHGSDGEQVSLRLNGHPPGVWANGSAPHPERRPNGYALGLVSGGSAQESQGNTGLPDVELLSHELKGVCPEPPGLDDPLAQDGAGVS

Antagonistic activity against the adenosine A2a receptor (in words) [1]: excellent antagonistic activity | Pharmacokinetic index in mice (in words) ([2]; conclusion on Table 4): excellent pharmacokinetic index | clearance ([2]; mouse, plasma, female Balb/c mice, single intravenous injection, read-out: Clearance rate): 18 mL/min/kg
SMILES: Cc1cc(-c2c(-c3ccccc3)nc(N)n3nc(CO)nc23)cc(C(F)(F)F)n1 [Compound 1, (5-amino-8-(2-methyl-6-(trifluoromethyl)pyridin-4-yl)-7-phenyl-[1,2,4]triazolo[1,5-c]pyrimidin-2-yl)methanol]

Solubility in the solvents of Table 2 (in words) ([3]; conclusion on Table 2): good solubility | solubility ([3]; solvent 1,4-Dioxane): 35 to 52.5 mg/mL (≈ 87.4 to 131 mM) | solubility ([3]; solvent Acetone): 33.3 to 50 mg/mL (≈ 83.2 to 125 mM) | solubility ([3]; solvent Acetonitrile): 12.2 to 13.8 mg/mL (≈ 30.5 to 34.5 mM) | solubility ([3]; solvent Acetonitrile:Water (2:1)): 26.3 to 35 mg/mL (≈ 65.7 to 87.4 mM) | solubility ([3]; solvent Ethanol): 28.8 to 38.3 mg/mL (≈ 71.9 to 95.7 mM) | solubility ([3]; solvent Ethanol:Water (3:1)): 25 to 50 mg/mL (≈ 62.4 to 125 mM) | solubility ([3]; solvent Ethyl acetate): 12.5 to 16.7 mg/mL (≈ 31.2 to 41.7 mM) | solubility ([3]; solvent Isopropanol): 14.4 to 16.4 mg/mL (≈ 36 to 41 mM) | solubility ([3]; solvent Methanol): 47.5 to 95 mg/mL (≈ 119 to 237 mM) | solubility ([3]; solvent Methyl ethyl ketone): 36.7 to 55 mg/mL (≈ 91.7 to 137 mM) | solubility ([3]; solvent N-butanol): 15.7 to 18.3 mg/mL (≈ 39.2 to 45.7 mM) | solubility ([3]; solvent Tetrahydrofuran): > 105 mg/mL
SMILES: Cc1cc(-c2c(-c3ccccc3)nc(N)n3nc(CO)nc23)cc(C(F)(F)F)n1 [Crystal form A of compound 1, (5-amino-8-(2-methyl-6-(trifluoromethyl)pyridin-4-yl)-7-phenyl-[1,2,4]triazolo[1,5-c]pyrimidin-2-yl)methanol]
Anti-tumor effect (in words) (CT26 cells; CT-26 mouse model, crystal form A 50 mg/Kg BID): has an anti-tumor effect; also recorded: significant inhibitory effect on the tumor | Volume of tumor (CT26 cells; Day 10): 47 mm^3 | Volume of tumor (CT26 cells; Day 13): 127 mm^3 | Volume of tumor (CT26 cells; Day 15): 204 mm^3 | Volume of tumor (CT26 cells; Day 18): 312 mm^3 | Volume of tumor (CT26 cells; Day 20): 409 mm^3 | Volume of tumor (CT26 cells; Day 22): 538 mm^3
